Reference: US11261186B2, “Biaryl derivative as GPR120 agonist” (LG CHEM, LTD., priority 2014, dated 2022)

Target: T1, hGPR120 (Homo sapiens, UniProt Q5NUL3)
T1 construct: expressed in transfected cells; host or cells: CHO-K1
T1 sequence (Q5NUL3 1-361): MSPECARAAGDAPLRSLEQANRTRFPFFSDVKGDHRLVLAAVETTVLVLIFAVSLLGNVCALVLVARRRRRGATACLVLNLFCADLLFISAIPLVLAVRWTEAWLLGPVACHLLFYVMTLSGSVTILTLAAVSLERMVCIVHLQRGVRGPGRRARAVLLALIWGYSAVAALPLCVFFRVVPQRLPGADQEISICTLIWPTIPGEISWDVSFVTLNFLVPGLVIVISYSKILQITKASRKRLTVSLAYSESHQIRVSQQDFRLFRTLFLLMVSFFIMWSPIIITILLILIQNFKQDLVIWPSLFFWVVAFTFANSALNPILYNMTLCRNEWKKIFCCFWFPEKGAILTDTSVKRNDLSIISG
Assay: Measurement of Activity of GPR120 Agonist (Cell-Based Assay), Calcium 5 dye fluorescence
Conditions: CHO-K1 cells expressing Ga16 and hGPR120
Method in brief: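 After an 18 h incubation at 37 °C, the transfected CHO-K1 cells (Gα16, hGPR120) received Calcium 5 dye for 1 h; compound dilutions in 0.5% DMSO were then injected and emission at 525 nm recorded, with values given as % of the vehicle response.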

Row | EC50 [nM] | SMILES
1 | < 200 | O=C(O)CC1CCN(c2c(F)cc(-c3cccc(OCC4CC4)n3)cc2F)CC1 [Example 106, 2-[1-[4-[6-(cyclopropylmethoxy)-2-pyridyl]-2,6-difluoro-phenyl]-4-piperidyl]acetic acid]
2 | < 200 | C[C@H](CCCC(=O)O)c1c(F)cc(-c2cccnc2SC2CCC2)cc1F [Example 227, (R)-5-[4-(2-cyclobutylsulfanyl-pyridin-3-yl)-2,6-difluoro-phenyl]-hexanoic acid]
3 | < 200 | CC(C)Oc1ccnc(-c2cc(F)c(N3CCC(CC(=O)O)CC3)c(F)c2)n1 [Example 346, 2-[1-[2,6-difluoro-4-(4-isopropoxypyrimidin-2-yl)phenyl]-4-piperidyl]acetic acid]
4 | < 200 | CCCOc1cccc(-c2ccc3c(c2)CCC(CCC(=O)O)O3)n1 (stereo not shown) [Example 556, 3-[6-(6-propoxy-pyridin-2-yl)-chroman-2-yl]-propionic acid]
5 | < 200 | CC(CCCC(=O)O)c1c(F)cc(-c2cccnc2SC2CCC2)cc1F (stereo not shown) [Example 48, 5-[4-(2-cyclobutylsulfanyl-3-pyridyl)-2,6-difluoro-phenyl]hexanoic acid]
6 | 2000 to 20000 | COc1ncccc1-c1cc(F)c(N(C)CCCC(=O)O)c(F)c1 [Example 219, 4-{[2,6-difluoro-4-(2-methoxy-pyridin-3-yl)-phenyl]-methyl-amino}-butyric acid]
7 | 200 to 2000 | O=C(O)CCC1CCc2cc(-c3cccc4c3OC3(CCCC3)C4)ccc2S1 (stereo not shown) [Example 283, 3-(6-spiro[3H-benzofuran-2,1′-cyclopentan]-7-yl-thiochroman-2-yl)-propionic acid]
8 | < 200 | Cc1cc(OCC2CC2)nc(-c2cc(F)c(OCCCC(=O)O)c(Cl)c2)n1 [Example 396, 4-[2-chloro-4-[4-(cyclopropylmethoxy)-6-methyl-pyrimidin-2-yl]-6-fluoro-phenoxy]butanoic acid]
9 | < 200 | O=C(O)CCCC(F)(F)c1ccc(-c2cccnc2SC2CCCC2)cc1 [Example 184, 5-[4-(2-cyclopentylsulfanyl-pyridin-3-yl)-phenyl]-5,5-difluoro-pentanoic acid]
10 | < 200 | CCCSc1ncccc1-c1cc(F)c(OCc2cc(O)no2)c(F)c1 [Example 66, 5-[[2,6-difluoro-4-(2-propylsulfanyl-3-pyridyl)phenoxy]methyl]isoxazol-3-ol]
11 | < 200 | O=C(O)C1CC1COc1c(F)cc(-c2cccc(OCC3CC3)n2)cc1F (stereo not shown) [Example 549, 2-[4-(6-cyclopropylmethoxy-pyridin-2-yl)-2,6-difluoro-phenoxymethyl]-cyclopropanecarboxylic acid]
12 | 200 to 2000 | CC(C)Cc1cncc(-c2cc(F)c(N3CCC(CC(=O)O)CC3)c(F)c2)n1 [Example 364, 2-[1-[2,6-difluoro-4-(6-isobutylpyrazin-2-yl)phenyl]-4-piperidyl]acetic acid]
13 | 200 to 2000 | O=C(O)CC1CCN(c2c(F)cc(-c3cncc(NC4CCCC4)n3)cc2F)CC1 [Example 357, 2-[1-[4-[6-(cyclopentylamino)pyrazin-2-yl]-2,6-difluoro-phenyl]-4-piperidyl]acetic acid]
14 | < 200 | CN(CCCC(=O)O)c1c(F)cc(-c2cccnc2OCC2CCC2)cc1F [Example 218, 4-{[4-(2-cyclobutylmethoxy-pyridin-3-yl)-2,6-difluoro-phenyl]-methyl-amino}-butyric acid]
15 | 2000 to 20000 | N#Cc1ccc2c(ccn2-c2cc(F)c(OCCCC(=O)O)c(F)c2)c1 [Example 469, 4-[4-(5-cyanoindol-1-yl)-2,6-difluoro-phenoxy]butanoic acid]
16 | 200 to 2000 | O=C(O)CCC1CCc2cc(-c3cccnc3OC3CCOCC3)ccc2S1 (stereo not shown) [Example 284, 3-{6-[2-(tetrahydro-pyran-4-yloxy)-pyridin-3-yl]-thiochroman-2-yl}-propionic acid]
17 | 200 to 2000 | CN(CCCC(=O)O)c1c(F)cc(-c2occc2COCC2CC2)cc1F [Example 470, 4-[4-[3-(cyclopropylmethoxymethyl)-2-furyl]-2,6-difluoro-N-methyl-anilino]butanoic acid]
18 | < 200 | CCCSc1cccc(-c2cc(F)c(C(C)CCCC(=O)O)c(F)c2)n1 (stereo not shown) [Example 55, 5-[2,6-difluoro-4-(6-propylsulfanyl-2-pyridyl)phenyl]hexanoic acid]
19 | < 200 | O=C(O)CCCSc1ccc(-c2cccc3c2OC(F)(F)O3)cc1 [Example 155, 4-[4-(2,2-difluoro-benzo[1,3]dioxol-4-yl)-phenylsulfanyl]-butyric acid]
20 | < 200 | O=C(O)CCC1CCc2cc(-c3cccnc3SC3CCC3)ccc2O1 (stereo not shown) [Example 272, 3-[6-(2-cyclobutylsulfanyl-pyridin-3-yl)-chroman-2-yl]-propionic acid]
21 | < 200 | O=C(O)CCCC(F)(F)c1ccc(-c2cccnc2SC2CCC2)cc1 [Example 178, 5-[4-(2-cyclobutylsulfanyl-pyridin-3-yl)-phenyl]-5,5-difluoro-pentanoic acid]
22 | 200 to 2000 | O=C(O)CC1CCN(c2c(F)cc(-c3cccc(CC4CCC4)n3)cc2F)CC1 [Example 375, 2-[1-[4-[6-(cyclobutylmethyl)-2-pyridyl]-2,6-difluoro-phenyl]-4-piperidyl]acetic acid]
23 | < 200 | O=C(O)CCCOc1c(F)cc(-c2ccc(COCC3CC3)s2)cc1F [Example 565, 4-[4-(5-cyclopropylmethoxymethyl-thiophen-2-yl)-2,6-difluoro-phenoxy]-butanoic acid]
24 | < 200 | CC(C)Sc1cccc(-c2cc(F)c(N3CCC(CC(=O)O)C3)c(F)c2)n1 (stereo not shown) [Example 125, 2-[1-[2,6-difluoro-4-(6-isopropylsulfanyl-2-pyridyl)phenyl]pyrrolidin-3-yl]acetic acid]
25 | < 200 | O=C(O)CCCCc1ccc(-c2cccnc2OC2CCCC2)cc1F [Example 244, 5-[4-(2-cyclopentyloxy-pyridin-3-yl)-2-fluoro-phenyl]-pentanoic acid]
26 | 200 to 2000 | O=C(O)CC1CCN(c2c(F)cc(-c3cccc(OC4CCSCC4)n3)cc2F)C1 (stereo not shown) [Example 596]

Row | SMILES | EC50 [nM]
27 | Cc1cc(OC2CCC2)nc(-c2cc(F)c(N3CCC(CC(=O)O)CC3)c(F)c2)n1 [Example 323, 2-[1-[4-[4-(cyclobutoxy)-6-methyl-pyrimidin-2-yl]-2,6-difluoro-phenyl]-4-piperidyl]acetic acid] | 200 to 2000
28 | O=C(O)CCCCc1c(F)cc(-c2cccc(OC3CCCC3)n2)cc1F [Example 33, 5-[4-(6-cyclopentoxy-2-pyridyl)-2,6-difluoro-phenyl]pentanoic acid] | < 200
29 | O=C(O)CCCOc1c(F)cc(-c2ccnc(OC3CCC3)n2)cc1Cl [Example 423, 4-[2-chloro-4-(2-cyclobutoxy-pyrimidin-4-yl)-6-fluoro-phenoxy]-butyric acid] | < 200
30 | CC(CCCC(=O)O)c1c(F)cc(-c2cccnc2OC2CCCC2)cc1F (stereo not shown) [Example 51, 5-[4-(2-cyclopentoxy-3-pyridyl)-2,6-difluoro-phenyl]hexanoic acid] | < 200
31 | CC(C)(CCCC(=O)O)c1c(F)cc(-c2cccnc2SC2CCC2)cc1F [Example 164, 5-[4-(2-cyclobutylsulfanyl-pyridin-3-yl)-2,6-difluoro-phenyl]-5-methyl-hexanoic acid] | 200 to 2000
32 | CCCCOc1cncc(-c2cc(F)c(N3CCC(CC(=O)O)CC3)c(F)c2)n1 [Example 343, 2-[1-[4-(6-butoxypyrazin-2-yl)-2,6-difluoro-phenyl]-4-piperidyl]acetic acid] | < 200
33 | CC(C)(CCCC(=O)O)c1ccc(-c2cccnc2SC2CCC2)cc1 [Example 165, 5-[4-(2-cyclobutylsulfanyl-pyridin-3-yl)-phenyl]-5-methyl-hexanoic acid] | < 200
34 | Cc1cc(OC2CCC2)nc(-c2cc(F)c(C(C)CCCC(=O)O)c(F)c2)n1 (stereo not shown) [Example 419, 5-[4-(4-cyclobutoxy-6-methyl-pyrimidin-2-yl)-2,6-difluoro-phenyl]-hexanoic acid] | < 200
35 | COc1ccc(-c2cc(F)c(OCCCC(=O)O)c(F)c2)nc1OC1CCC1 [Example 455, 4-[4-[6-(cyclobutoxy)-5-methoxy-2-pyridyl]-2,6-difluoro-phenoxy]butanoic acid] | < 200
36 | O=C(O)CC1CCN(c2c(F)cc(-c3cccnc3OC3CCCC3)cc2F)CC1 [Example 102, 2-[1-[4-[2-(cyclopentoxy)-3-pyridyl]-2,6-difluoro-phenyl]-4-piperidyl]acetic acid] | < 200
37 | O=C(O)CC1CCN(c2c(F)cc(-c3nc(OC4CCC4)cc(C(F)(F)F)n3)cc2F)CC1 [Example 617, {1-[4-(4-cyclobutoxy-6-trifluoromethyl-pyrimidin-2-yl)-2,6-difluoro-phenyl]-piperidin-4-yl}-acetic acid] | > 20000
38 | CN(CCCC(=O)O)c1c(F)cc(-c2ccc(Cl)c(OC3CCC3)n2)cc1F [Example 531, 4-{[4-(5-chloro-6-cyclobutoxy-pyridin-2-yl)-2,6-difluoro-phenyl]-methyl-amino}-butyric acid] | 200 to 2000
39 | CC(C)COc1ccnc(-c2cc(F)c(N3CCC(CC(=O)O)CC3)c(F)c2)n1 [Example 348, 2-[1-[2,6-difluoro-4-(4-isobutoxypyrimidin-2-yl)phenyl]-4-piperidyl]acetic acid] | < 200
40 | O=C(O)CC1CN(c2c(F)cc(-c3cccnc3OC3CCCC3)cc2F)C1 [Example 113, 2-[1-[4-[2-(cyclopentoxy)-3-pyridyl]-2,6-difluoro-phenyl]azetidin-3-yl]acetic acid] | < 200
